{"source": "patent US20250152706A1", "about": "“COMPOSITIONS FOR ORAL DELIVERY OF BIOTHERAPEUTICS” (INTRACT PHARMA LIMITED, priority 2022, published 2025)", "key": {"[1]": {"test": "Ussing chamber penetration of infliximab into rat small intestine tissue, ELISA", "settings": "2 h, Examples 8-10", "protocol": "(§1) The chambers are made of solid acrylic and supports the tissue membrane in such a way that each side of the membrane is isolated and faces a different chamber representing the luminal (apical) and blood (basal) compartments. The working system consists of a unit to fit a maximum of six vertical chambers, a gas manifold for carbogen purging (95% O2, 5% CO2) and a heater block to maintain the temperature of the chambers at 37° C. during the experiments with the use of a circulating water bath. The chambers are two-piece assemblies held together by a high spring-tension retaining ring to ensure leak-free operation during the experiments. […]\n(§2) For the tissue penetration studies, the freshly excised small intestine (jejunum) and proximal colon tissue of healthy wistar rats was collected and transferred to an ice-cold solution of Krebs-Bicarbonate Ringer solution (KBr) of pH 7.4. […] The TEER was continuously monitored during the experiment to confirm the viability and integrity of the tissue. […]\n(§3) Infliximab sample analysis (permeability studies) was performed using an indirect ELISA platform assay. […] The plate was read at a wavelength of 650 nm with the plate reader (Synergy LX Multimode Reader, Biotek).\n(§4) Permeability of the drug infliximab across rat small intestine (jejunum) and colon tissue was measured with and without 5-ALA and the base, L-arginine. […]"}, "[2]": {"test": "Ussing chamber penetration of infliximab into rat colon tissue, ELISA", "settings": "2 h", "protocol": "as §1, §2, §3, §4"}, "[3]": {"test": "Stability of oxytocin in rat caecum slurry, RP-HPLC", "settings": "for effect of the excipient on oxytocin stability, in words: rat caecum slurry, Examples 6 and 7; for remaining at 2 h, 1 mg/ml: Wistar, rat, pH 5.5, % Drug at T = 2 h, oxytocin 1 mg/ml, aprotinin 1 mg/ml in rat caecum slurry", "quoted_text": "The rat caecum slurry was based on combination of cecum and proximal colon fluids collected from healthy wistar rats weighing 250 g. The fluids were collected immediately after sacrificing the rats and transferred to an anaerobic workstation (Electrotek 500TG™ workstation, Electrotek, West Yorkshire, UK) maintained at 37° C. and 70% relative air humidity. The fluids were diluted with freshly prepared basal medium to obtain a 50% w/w caecum fluid by homogenization. The homogenized mixture was sieved through an open mesh fabric. The pH of the fluid was measured as 5.5.\nPeptide stock solution (oxytocin) were prepared in PBS at 2 mg/ml concentrations. Concentrations of 10 mg/ml and 40 mg/ml 5-ALA, 40 mg/ml methyl-ALA, 40 mg/ml hexyl-ALA and 2 mg/ml aprotinin were prepared. Stock solutions containing certain oxytocin combinations were added to 50% rat caecum slurry to obtain incubation concentrations (Examples 6 and 7) of 1 mg/ml peptide, 5 mg/ml or 20 mg/ml 5-ALA, 20 mg/ml methyl-ALA, 20 mg/ml hexyl-ALA, 1 mg/ml aprotinin, and 25% w/w rat caecum slurry. Samples were withdrawn at appropriate time points and added to 0.1N HCl solution in a ratio of 1:3. The samples were centrifuged at 9.6 g for 10 mins and the supernatant was analysed by reversed phase-HPLC (RP-HPLC).\nA 150×4.6-mm Luna 5 μm C18 100 Å (Phenomenex, Torrance, CA) column was used using a gradient system as below:\nEach sample's injection volume was 20 μl, the mobile phase flow rate was 1 ml/min and the peptide was detected at 214 nm. Each sample was run for 23 mins.\nStability of the drug oxytocin in rat caecum slurry was measured with and without 5-ALA and aprotinin, an enzyme inhibitor. Each experiment was conducted in duplicate/triplicate. The oxytocin remaining at different time points was measured by RP-HPLC.\nStability of the drug oxytocin in rat caecum slurry was measured with and without methyl-ALA, hexyl-ALA and aprotinin, an enzyme inhibitor. Each experiment was conducted in duplicate/triplicate. The oxytocin remaining at different time points was measured by RP-HPLC."}, "[4]": {"test": "Ussing chamber penetration of oxytocin into rat colon tissue, RP-HPLC", "format": "in vitro ADME", "settings": "Example 12", "protocol": "as §1, §2\n(§5) Permeability of the drug oxytocin across rat small intestine (jejunum) and colon tissue was measured with and without 5-ALA. The peptide in the tissue at 2 h and was measured by RP-HPLC."}, "[5]": {"test": "Stability of infliximab in human colon fluid (human colon model), SE-HPLC", "format": "in vitro ADME", "settings": "for effect of the excipient on infliximab stability, in words: human colon fluid, Examples 1 and 4", "protocol": "A human colonic model based on a mixed faecal inoculum was used to mimic the luminal environment of the human large intestine. […] The basal media provides nutrients and growth factors to the microbiota allowing viability for up to 24 hours. The homogenized bacterial media was sieved through an open mesh fabric (SefarNitex™, pore size 350 μm) to remove any nonhomogeneous fibrous material. The pH was maintained at approximately 7.0 to mimic the colonic luminal pH of the human.\nStability of the drug/antibody infliximab in human colon fluid was measured with and without 5-ALA at varying concentrations. Each experiment was conducted in duplicate/triplicate.\nStability of the drug infliximab in human colon fluid was measured with and without 5-ALA and L-arginine at varying concentrations. Each experiment was conducted in duplicate/triplicate.\nStability of the drug infliximab in human colon fluid was measured with and without 5-ALA and aprotinin at varying pH. Each experiment was conducted in duplicate/triplicate.\nEach experiment was conducted in duplicate/triplicate."}, "[6]": {"protocol": "Antibody stock solution (infliximab) was prepared in PBS at a 2 mg/ml concentration. 5-ALA was prepared at concentrations 10, 20 or 40 mg/ml. Methyl-ALA, hexyl-ALA, salcaprozate sodium, (SNAC) and sodium chenodeoxycholate were prepared at 20 mg/ml concentrations. The base L-arginine was prepared at 11, 22 or 44 mg/ml, and the stabiliser aprotinin was prepared at a 2 mg/ml concentration.\nA 300×8.0-mm YMC-Pack Diol-200 S-5 μm, 20 nm (YMC Co Ltd, Kyoto, Japan) size exclusion (SE) chromatography column was used for sample separation using phosphate buffer saline (pH 7.3) prepared in sterile HPLC grade water as the mobile phase for elution, at a flow rate of 0.5 ml/min. The analysis was operated at room temperature and UV detection wavelength was set at 214 nm. Each sample was run for 40 minutes to allow complete elution of the sample proteins and reduce run-over.\nStability of the drug infliximab in rat caecum slurry was measured with and without SNAC, sodium chenodeoxycholate, hexyl-ALA and aprotinin. Each experiment was conducted in duplicate/triplicate. The antibody remaining at different time points was measured by SE-HPLC."}, "[7]": {"test": "Ussing chamber penetration of oxytocin into rat small intestine tissue, RP-HPLC", "settings": "2 h, Examples 12-14", "protocol": "as §1, §2, §5\nPermeability of oxytocin across rat small intestine (jejunum) was measured with and without 5-ALA, methyl-ALA and hexyl-ALA. The peptide in the tissue at 2 h and was measured by RP-HPLC. […]"}, "[8]": {"settings": "Example 1, infliximab 1 mg/ml in human colon fluid, 5-ALA.HCl 5 mg/ml (pH 5.5), 10 mg/ml (pH 4.9), 20 mg/ml (pH 4.1)"}, "[9]": {"settings": "Example 2, infliximab 1 mg/ml in human colon fluid, 5-ALA phosphate + L-arginine 5 + 5.5 mg/ml (pH 6.4), 10 + 11 mg/ml (6.5), 20 + 22 mg/ml (pH 6.5), 5-ALA phosphate 20 mg/ml + NaOH (pH 6.4)"}, "[10]": {"settings": "Example 4, infliximab 1 mg/ml, 5-ALA.HCl / methyl-ALA / hexyl-ALA 10 mg/ml, aprotinin 1 mg/ml in human colon fluid, pH 6.5"}}, "note": "Entries after “also recorded” stand apart in the source; their conditions may differ. Where two headings read alike, the source gives them in different places.", "data": [{"molecule": "NCC(=O)CCC(=O)O", "note": "[Formulation 5-ALA, 5-aminolevulinic acid]", "values": [{"measurement": "effect of the excipient on infliximab permeation / tissue uptake, in words", "setting": "[1]", "value": "did not lead to permeation or improved tissue uptake of infliximab"}, {"measurement": "effect of the excipient on infliximab permeation / tissue uptake, in words", "setting": "[2]; rat colon tissue, Example 8", "value": "did not lead to permeation or improved tissue uptake of infliximab"}, {"measurement": "effect of the excipient on oxytocin stability, in words", "setting": "[3]", "value": "acts as a stabiliser and increases the amount of peptide present in the caecum slurry"}, {"measurement": "effect of the excipient on oxytocin permeation / tissue level, in words", "setting": "[4]; rat colon tissue, 2 h", "value": "acts as a permeability enhancer and increases the amount of oxytocin"}, {"measurement": "effect of the excipient on infliximab stability, in words", "setting": "[5]", "value": "provides antibody stability; also recorded: does not stabilize the antibody in a dose dependent manner"}]}, {"molecule": "CC[C@H](C)[C@@H]1NC(=O)[C@H](Cc2ccc(O)cc2)NC(=O)[C@@H](N)CSSC[C@@H](C(=O)N2CCC[C@H]2C(=O)N[C@@H](CC(C)C)C(=O)NCC(N)=O)NC(=O)[C@H](CC(N)=O)NC(=O)[C@H](CCC(N)=O)NC1=O", "note": "[Oxytocin]", "values": [{"measurement": "remaining at 2 h, 1 mg/ml", "setting": "[3]; Example 6, 5-ALA.HCl 20 mg/ml", "value": "10.9 ± 3.4", "unit": "%"}, {"measurement": "remaining at 2 h, 1 mg/ml", "setting": "[3]; Example 7, methyl-ALA / hexyl-ALA 20 mg/ml", "value": "5 ± 2", "unit": "%"}, {"measurement": "% Drug in colon tissue at 2 h", "setting": "[4]; oxytocin 1 mg/ml, 5-ALA.HCl 20 mg/ml", "value": "0.0 ± 0.0", "unit": "%"}]}, {"molecule": "O=C([O-])CCCCCCCNC(=O)c1ccccc1O.[Na+]", "note": "[SNAC, salcaprozate sodium]", "values": [{"measurement": "effect of the excipient on infliximab stability, in words", "setting": "[6]", "value": "provide no stabilisation"}]}, {"molecule": "CCCCCCOC(=O)CCC(=O)CN", "note": "[hexyl-ALA, hexyl aminolevulinic acid]", "values": [{"measurement": "effect of the excipient on infliximab stability, in words", "setting": "[6]", "value": "provide good antibody stability"}, {"measurement": "effect of the excipient on oxytocin stability, in words", "setting": "[3]", "value": "provide some peptide stabilisation"}, {"measurement": "effect of the excipient on infliximab stability, in words", "setting": "[5]", "value": "greater antibody stabilisation"}]}, {"molecule": "COC(=O)CCC(=O)CN", "note": "[methyl-ALA, methyl aminolevulinic acid]", "values": [{"measurement": "effect of the excipient on infliximab stability, in words", "setting": "[5]", "value": "greater antibody stabilisation"}]}, {"molecule": "CCCCCCCCCC(=O)[O-].[Na+]", "note": "[sodium caprate]", "values": [{"measurement": "effect of the excipient on infliximab tissue level, in words", "setting": "[2]; rat colon tissue pre-treated with NAC, Example 11", "value": "may have led to increased tissue levels of antibody"}, {"measurement": "effect of the excipient on oxytocin permeation / tissue level, in words", "setting": "[7]", "value": "greatest increase in oxytocin tissue levels"}]}, {"molecule": "C[C@H](CCC(=O)[O-])[C@H]1CC[C@H]2[C@@H]3[C@H](O)C[C@@H]4C[C@H](O)CC[C@]4(C)[C@H]3CC[C@]12C.[Na+]", "note": "[sodium chenodeoxycholate]", "values": [{"measurement": "effect of the excipient on infliximab stability, in words", "setting": "[6]", "value": "provide no stabilisation"}]}, {"molecule": "Infliximab: monoclonal antibody; existing commercial IBD therapeutic antibody, tested alone as control", "values": [{"measurement": "% Drug at T = 2 h", "setting": "[5]; [8]", "value": "21.5 ± 0.0", "unit": "%"}, {"measurement": "% Drug at T = 4 h", "setting": "[5]; [8]", "value": "7.8 ± 0.0", "unit": "%"}, {"measurement": "% Drug at T = 2 h", "setting": "[5]; [9]", "value": "16.5 ± 0.4", "unit": "%"}, {"measurement": "% Drug at T = 4 h", "setting": "[5]; [9]", "value": "6.5 ± 0.3", "unit": "%"}, {"measurement": "% Drug at T = 2 h", "setting": "[5]; [10]", "value": "37.6 ± 3.5", "unit": "%"}, {"measurement": "% Drug at T = 4 h", "setting": "[5]; [10]", "value": "16.1 ± 0.6", "unit": "%"}]}, {"molecule": "aprotinin", "values": [{"measurement": "effect of the excipient on infliximab stability, in words", "setting": "[6]", "value": "provides an antibody stabilisation effect"}]}]}
